Source: patent publication US20060223875A1, “Methods and compositions for production, formulation and use of 1-aryl-3-azabicyclo[3.1.0]hexanes” (priority 2005, published 2006)
pIC50: −log10 of the molar value. Read-outs that look alike come from different tables or passages of the source.

How the values were obtained:
[1] = target: norepinephrine (NE) transporter (Rattus norvegicus, UniProt Q9WTR4); assay: Inhibition of [3H]NE uptake in rat hypothalamus synaptosomes; type: biochemical
Description: (§1) The effects of 1-aryl-3-azabicyclo[3.1.0]hexanes of the invention for inhibiting transport of norepinephrine (NE) and/or dopamine (DA) and/or serotonin (5-HT) were evaluated using preparations of synaptosomes from different regions of the rat brain according to previously-reported techniques (Perovic and Muller, 1995, Janowsky et al., 1986). The subject assay methods are art-accepted models for generally assessing and predicting activities of drugs that modulate biogenic amine transport in mammals.
(§2) Whole brains were obtained from normal rats, and synaptosomal preparations were made from either whole brain (5-HT), striatum (DA) or hypothalamus (NE) by gentle disruption in 10 volumes (w/v) of 0.32 M sucrose (0-4° C.) using a Teflon-glass homogenizer. The homogenate was then centrifuged at 1000×g for 10 min. The supernatant was retained and centrifuged at 23000 g for 20 min. The resulting pellet was gently resuspended in 200 volumes of 0.32 M sucrose (0-4° C.) using a teflon-glass homogenizer. Aliquots (250 μL) of this preparation were added to tubes, along with 0.2 μCi/mL of [^3H]5-HT, [^3H]DA, or [^3H]NE, 200 μL of selected 1-aryl-3-azabicyclo[3.1.0]hexane test compounds (to yield final concentrations of 100 nM, 300 nM, 1 μM, 3 μM, 10 μM, 30 μM or 100 μM) and 1 mL of Krebs-Ringer bicarbonate buffer (pH 7.4). The mixtures were incubated for either 15 (DA and 5-HT uptake) or 20 (NE uptake) minutes at 37° C. At the end of this period, the assay was terminated by rapid filtration over Whatman GF/C glass fiber filters. The filters were rinsed 3 times with 4 ml of Krebs-Ringer bicarbonate buffer (0-4° C.), and the radioactivity retained on the filters was measured by liquid scintillation spectrometry. The results of these assays are shown in Table 3, below, which indicates, for each of the exemplary, aza-substituted compounds, the structure of the substituent, and levels of observed uptake inhibition for each of the indicated neurotransmitters. Also provided in the table is a multi-target “inhibition profile”, expressing a ratio of observed inhibition for each of the aza-substituted bicifadine across a panel of the three indicated neurotransmitters.

[2] = target: serotonin (5-HT) transporter (Rattus norvegicus, UniProt P31652); assay: Inhibition of [3H]5-HT uptake in rat whole brain synaptosomes; type: biochemical
Sequence of serotonin (5-HT) transporter (P31652 whole entry): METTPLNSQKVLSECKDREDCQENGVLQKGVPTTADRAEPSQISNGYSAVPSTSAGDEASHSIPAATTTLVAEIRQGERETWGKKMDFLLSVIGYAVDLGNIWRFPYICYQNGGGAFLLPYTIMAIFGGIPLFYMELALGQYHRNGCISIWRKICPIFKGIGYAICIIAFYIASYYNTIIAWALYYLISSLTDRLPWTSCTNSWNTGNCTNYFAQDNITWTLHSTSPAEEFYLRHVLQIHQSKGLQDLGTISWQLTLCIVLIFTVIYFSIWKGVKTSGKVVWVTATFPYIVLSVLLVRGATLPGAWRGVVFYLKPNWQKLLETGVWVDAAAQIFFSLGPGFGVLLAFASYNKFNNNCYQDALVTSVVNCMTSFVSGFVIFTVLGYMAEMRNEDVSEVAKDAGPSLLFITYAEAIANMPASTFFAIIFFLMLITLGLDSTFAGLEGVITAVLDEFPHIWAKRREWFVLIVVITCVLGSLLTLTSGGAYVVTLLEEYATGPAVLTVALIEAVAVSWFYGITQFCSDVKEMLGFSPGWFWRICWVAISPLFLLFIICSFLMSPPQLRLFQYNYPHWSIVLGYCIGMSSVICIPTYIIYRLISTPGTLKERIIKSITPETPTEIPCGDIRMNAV
Description: as §1, §2

[3] = target: dopamine (DA) transporter (Rattus norvegicus, UniProt P23977); assay: Inhibition of [3H]DA uptake in rat striatum synaptosomes; type: biochemical
Sequence of dopamine (DA) transporter (P23977 whole entry): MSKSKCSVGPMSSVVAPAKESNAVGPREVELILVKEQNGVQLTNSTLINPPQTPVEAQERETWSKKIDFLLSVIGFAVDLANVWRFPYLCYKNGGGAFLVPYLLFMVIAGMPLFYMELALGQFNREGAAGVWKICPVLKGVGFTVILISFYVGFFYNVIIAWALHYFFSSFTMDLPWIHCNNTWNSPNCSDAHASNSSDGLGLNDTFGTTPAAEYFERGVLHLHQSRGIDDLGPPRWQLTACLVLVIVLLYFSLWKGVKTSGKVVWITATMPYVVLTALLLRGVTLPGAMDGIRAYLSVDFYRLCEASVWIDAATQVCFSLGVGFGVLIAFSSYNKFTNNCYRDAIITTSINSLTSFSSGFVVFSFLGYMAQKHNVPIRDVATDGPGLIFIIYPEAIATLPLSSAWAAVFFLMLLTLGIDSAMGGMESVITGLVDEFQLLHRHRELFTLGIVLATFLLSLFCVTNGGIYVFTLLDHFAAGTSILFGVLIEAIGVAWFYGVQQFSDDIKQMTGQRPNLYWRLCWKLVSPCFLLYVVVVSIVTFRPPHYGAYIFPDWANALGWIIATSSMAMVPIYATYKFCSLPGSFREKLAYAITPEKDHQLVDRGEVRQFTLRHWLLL
Description: as §1, §2

[4] = orally administered single dose; 150 mg bicifadine, 650 mg aspirin; cited from earlier work
[5] = dental surgery patients; cited from earlier work
[6] = tested on: reuptake of norepinephrine, serotonin, and dopamine; settings: cited from earlier work
[7] = rat hypothalamus synaptosomes, [3H]NE, 20 min, 37° C., read-out: Inhibition of NE Uptake (IC50)
[8] = rat whole brain synaptosomes, [3H]5-HT, 15 min, 37° C., read-out: Inhibition of 5-HT Uptake (IC50)
[9] = rat striatum synaptosomes, [3H]DA, 15 min, 37° C., read-out: Inhibition of DA Uptake (IC50)

Sequence of norepinephrine (NE) transporter (Q9WTR4 1-597): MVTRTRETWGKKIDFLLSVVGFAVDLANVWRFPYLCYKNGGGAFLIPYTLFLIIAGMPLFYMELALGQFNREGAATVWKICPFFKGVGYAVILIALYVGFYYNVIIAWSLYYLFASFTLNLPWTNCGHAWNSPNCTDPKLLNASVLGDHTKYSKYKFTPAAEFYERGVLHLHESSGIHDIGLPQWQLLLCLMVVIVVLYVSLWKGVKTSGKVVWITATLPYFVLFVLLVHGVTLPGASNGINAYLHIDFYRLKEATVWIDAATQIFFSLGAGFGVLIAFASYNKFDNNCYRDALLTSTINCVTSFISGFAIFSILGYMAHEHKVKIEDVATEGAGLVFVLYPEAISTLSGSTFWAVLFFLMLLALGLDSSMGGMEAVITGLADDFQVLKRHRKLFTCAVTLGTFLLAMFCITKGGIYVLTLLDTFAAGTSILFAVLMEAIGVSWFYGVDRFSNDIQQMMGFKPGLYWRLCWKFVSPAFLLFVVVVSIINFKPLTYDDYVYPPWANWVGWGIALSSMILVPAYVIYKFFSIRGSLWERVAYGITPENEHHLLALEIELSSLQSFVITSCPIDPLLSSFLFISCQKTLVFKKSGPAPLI

SMILES	pIC50 [1, 7]	pIC50 [2, 8]	pIC50 [3, 9]	also measured
CN1CC2CC2(c2ccc(F)cc2)C1 (stereo not shown) [CH3,4-F, 1-(4-Fluorophenyl)-3-methyl-3-aza-bicyclo[3.1.0]hexane]				pIC50 [1]: 6.77; pIC50 [2]: 5.47; pIC50 [3]: 5.42
CCCN1CC2CC2(c2ccc(C)cc2)C1 (stereo not shown) [n-C3H7,4-CH3, 3-Propyl-1-p-tolyl-3-aza-bicyclo[3.1.0]hexane]	5.85	6.12	5.57	
Cc1ccc(C23CC2CN(CC(F)(F)F)C3)cc1 (stereo not shown) [C2H2F3,4-CH3]		4.60	4.32	
Cc1ccc(C23CC2CN(C)C3)cc1 (stereo not shown) [CH3,4-CH3, 3-Methyl-1-p-tolyl-3-aza-bicyclo[3.1.0]hexane]				pIC50 [1]: 6.82; pIC50 [2]: 6.72; pIC50 [3]: 6.02
Cc1ccc(C23CC2CN(C(C)C)C3)cc1 (stereo not shown) [i-C3H7,4-CH3, 3-Isopropyl-1-p-tolyl-3-aza-bicyclo[3.1.0]hexane]	6.64	6.77	6.21	
CC(=O)Oc1ccccc1C(=O)O [aspirin]				analgesic activity compared to placebo [4]: Significant analgesic activity
CN1CC2CC2(c2cccc(Cl)c2)C1 (stereo not shown) [CH3,3-Cl, 1-(3-Chlorophenyl)-3-methyl-3-aza-bicyclo[3.1.0]hexane]				pIC50 [1]: 7.08; pIC50 [2]: 6.57; pIC50 [3]: 5.89
COCCN1CC2CC2(c2ccc(C)cc2)C1 (stereo not shown) [C3H7O, 4-CH3, 3-(2-Methoxyethyl)-1-p-tolyl-3-aza-bicyclo[3.1.0]hexane]	5.19	5.10	5.00	
Cc1ccc(C23CNCC2C3)cc1.Cl (stereo not shown) [bicifadine, 1-p-Tolyl-3-aza-bicyclo[3.1.0]hexane hydrochloride, reference compound]	6.89	6.89	5.89	analgesic activity compared to placebo [4]: Significant analgesic activity; analgesia relative to codeine and tramadol [5]: analgesia comparable to the narcotic, codeine and the narcotic-like agent tramadol
Cc1ccc(C23CC2CN(C(C)(C)C)C3)cc1 (stereo not shown) [t-C4H9,4-CH3]	5.57	5.12	5.14	
CCN1CC2CC2(c2ccc(C)cc2)C1 (stereo not shown) [C2H5,4-CH3, 3-Ethyl-1-p-tolyl-3-aza-bicyclo[3.1.0]hexane]				pIC50 [1]: > 7.00; pIC50 [2]: 6.62; pIC50 [3]: > 7.00
CN1CC2CC2(c2ccc(C(F)(F)F)cc2)C1 (stereo not shown) [CH3,4-CF3, 3-Methyl-1-(4-trifluoromethylphenyl)-3-aza-bicyclo[3.1.0]hexane]	5.59	6.89		
CN1CC2CC2(c2ccc(CN)cc2)C1 (stereo not shown) [CH3,4-CH2NH2, (4-(3-Methyl-3-aza-bicyclo[3.1.0]hexan-1-yl)phenyl)methanamine]		5.13	5.07	
Cl.Clc1ccc(C23CNCC2C3)cc1Cl (stereo not shown) [1-(3,4-dichlorophenyl)-3-azabicyclo[3.1.0]hexane hydrochloride]				inhibition of reuptake of norepinephrine, serotonin, and dopamine [6]: inhibit reuptake of all three of these biogenic amines
